The values below are quoted from earlier work in patent US20180187029A1, “COMPOSITION FOR FORMING HIGH RELEASE AND LOW FRICTION FUNCTIONAL COATINGS” (WHITFORD CORPORATION, priority 2015, published 2018).

The conditions of this series: for Density / Vapor pressure / Viscosity: 20° C.; for Surface tension: 23° C.

For `COCCC(=O)N(C)C` [3-methoxy-N,N-dimethylpropanamide], the Density is 0.99 g/Cm3, the Vapor pressure was 0.016 kPa, the Viscosity was 2.3 mPa · s and the Surface tension was 34.2 mN/m.
For the compound `CN1CCCC1=O` [N-methyl-2-pyrrolidone], the Density was 1.03 g/Cm3, the Vapor pressure is 0.04 kPa, the Viscosity is 1.8 mPa · s and the Surface tension is 38.6 mN/m.
